Where “and” joins values, the source holds several entries; their conditions need not be identical. Equal entries are not always repeated. Where no end group is shown, it is not given here.
Test system: CIA transgenic TNF-luc mice
Experiment: collagen type II-induced arthritis in transgenic TNF-luc mice (swelling, scores, weight)
Format: in vivo, BALB/c transgenic TNF-luc mice
Parameters: key to joint index score / arthritis index score: 0–4 per paw, four paws summed, max 16; key to swelling degree of right ankle: cm, day n thickness minus initial ankle thickness; key to systemic score: systemic score points, max 8
Conditions: for left ankle swelling / right ankle swelling changes / arthritis index score / clinical score: Adalimumab 8 mg/kg, mPEG-SC20k-HM-3 20 mg/kg; for right ankle swelling changes: CIA TNF-luc mice; for right ankle swelling changes / arthritis index score / clinical score: mean ± SD; for arthritis index score / clinical score: CIA chronic model; for systemic score / joint index score / swelling degree of right ankle: 20 mg/kg
Protocol: 8 animals are randomly divided into 4 groups (n=2), a normal group, a model group, a positive drug group and a test group. On day 0, for the primary immunization, mice are hypodermically injected with 50 μL collagen emulsifier (containing CII 100 μg/ mouse) at the tail root of mice for sensitization. On day 0, initial ankle widths, initial foot palm widths and initial toe thicknesses of left and right feet of mice in each group are measured separately.
After day 21, the same dosage of emulsifier is used for second immunization at the tail root. After the symptoms such as redness and swelling of joints appear on the four toes of mice, continuous administration is performed for 15 days. The normal group and the model group are separately hypodermically injected with 0.9% normal saline (0.2 mL/20 g of body weight), once every 2 days, 7 times in total. The positive drug Adalimumab group is hypodermically injected with Adalimumab (8 mg/kg of body weight), once every 15 days, once in total. The test treatment group is hypodermically injected with mPEG-SC20k-HM-3 (20 mg/kg of body weight), once every 2 days, 7 times in total.
Every 2 days, the thickness of the ankle, the width of the foot palm and the thickness of the toes of each group of mice are measured with a vernier caliper.
Swelling degree of left ankle (cm)=swelling thickness of left ankle on day n of the experiment−measured initial thickness of left ankle.
Swelling degree of right ankle (cm)=swelling thickness of right ankle on day n of the experiment−measured initial thickness of right ankle.
The joints of the mouse paw are observed with naked eyes, and the joints are scored every 2 days from day 30. Scoring is performed in terms of level 0 to level 4, 5 levels in total. 0=no erythema or swelling; 1=slight erythema or swelling, with erythema or swelling on one of the front/hind toe joints; 2=erythema or swelling on more than one toe; 3=swelling of paw beneath the ankle or wrist joint; 4=swelling of all paws including the ankle joint. Four paws of the mice are scored separately, and the highest score is 16 points.
After the secondary inflammation appears, systemic scoring is performed every 2 days, and the scoring standards are as follows:
Hind foot: no swelling=0 point, swelling of one hind foot=1 point, swelling of two hind feet=2 points.
Front foot: no swelling=0, swelling of one front foot=1 point, swelling of two front feet=2 points.
Ears: no redness symptoms and nodules=0 point, redness symptoms or nodules of one ear=1 point, red symptoms and nodules of two ears=2 points.
Nose: no swelling=0 point, obvious swelling=1 point.
Tail: no nodule=0 point, nodules=1 point; the highest score is 8 points.

In the case of “mPEG-SC20k-Ile-Val-Arg-Arg-Ala-Asp-Arg-Ala-Ala-Val-Pro-Gly-Gly-Gly-Gly-Arg-Gly-Asp ({mPEG‑SC 20k}-IVRRADRAAVPGGGGRGD) [polypeptide III, No. 3]”, the left ankle swelling (0 d) is reported as 0.000 ± 0.000 cm, the “right ankle swelling changes” value (0 d) is reported as 0.000 ± 0.000 cm and the left ankle swelling (12 d) is reported as 0.011 ± 0.004 cm. For the same substance, the “right ankle swelling changes” value (12 d) was 0.005 ± 0.021 cm, the left ankle swelling (15 d) was 0.028 ± 0.023 cm and the “right ankle swelling changes” value (15 d) was 0.003 ± 0.004 cm. The left ankle swelling (18 d) was 0.016 ± 0.008 cm, the “right ankle swelling changes” value (18 d) was 0.011 ± 0.016 cm and the left ankle swelling (21 d) was 0.011 ± 0.010 cm. For the same substance, the “right ankle swelling changes” value (21 d) was 0.010 ± 0.011 cm, the left ankle swelling (24 d) was 0.008 ± 0.006 cm and the “right ankle swelling changes” value (24 d) was 0.007 ± 0.005 cm. The left ankle swelling (27 d) was 0.009 ± 0.004 cm, the “right ankle swelling changes” value (27 d) was 0.004 ± 0.014 cm and the left ankle swelling (30 d) was 0.003 cm. For the same substance, the “right ankle swelling changes” value (30 d) was 0.015 ± 0.001 cm, the arthritis index score (30 d) was 5.50 ± 0.71 and the clinical score (30 d) was 4.50 ± 0.71. For the same substance, the left ankle swelling (33 d) was 0.007±0.013 cm, the “right ankle swelling changes” value (33 d) was 0.018 ± 0.020 cm and the arthritis index score (33 d) was 7.00 ± 1.41. The clinical score (33 d) was 4.00 ± 0.00, the left ankle swelling (36 d) was 0.006 ± 0.006 cm and the “right ankle swelling changes” value (36 d) was 0.006 ± 0.008 cm. For the same substance, the arthritis index score (36 d) was 6.50 ± 0.71, the clinical score (36 d) was 4.00 ± 0.00 and the left ankle swelling (39 d) was 0.026±0.023 cm. The “right ankle swelling changes” value (39 d) was 0.001 ± 0.007 cm, the arthritis index score (39 d) was 6.00 ± 0.00 and the clinical score (39 d) was 4.00 ± 0.00. For the same substance, the left ankle swelling (42 d) was 0.004 ± 0.006 cm, the “right ankle swelling changes” value (42 d) was 0.017 ± 0.004 cm and the arthritis index score (42 d) was 4.50 ± 0.71. The clinical score (42 d) was 4.00 ± 0.00, the left ankle swelling (45 d) was 0.011±0.004 cm and the “right ankle swelling changes” value (45 d) was 0.000 ± 0.006 cm. For the same substance, the arthritis index score (45 d) was 4.50 ± 0.71, the clinical score (45 d) was 4.00 ± 0.00 and the left ankle swelling (48 d) was 0.001±0.021 cm. The “right ankle swelling changes” value (48 d) was 0.001 ± 0.007 cm, the arthritis index score (48 d) was 4.50 ± 0.71 and the clinical score (48 d) was 5.00 ± 0.00. The left ankle swelling (51 d) was 0.023±0.007 cm and 0.023 cm, the “right ankle swelling changes” value (51 d) was 0.005 ± 0.007 cm and the arthritis index score (51 d) was 4.50 ± 0.71. The clinical score (51 d) was 4.00 ± 0.00, the systemic score (day 33) was 4.00±0.00 and the joint index score (day 36) was 6.50±0.71. For the same substance, the “swelling degree of right ankle” value (day 36) was 0.006±0.008, the systemic score (day 36) was 4.00±0.00 and the joint index score (day 39) was 6.00±0.00. For the same substance, the “swelling degree of right ankle” value (day 39) was 0.001±0.008, the systemic score (day 39) was 4.00±0.00 and the joint index score (day 42) was 4.50±0.7. The “swelling degree of right ankle” value (day 42) was 0.001±0.007, the systemic score (day 42) was 4.00±0.00 and the joint index score (day 45) was 4.50±0.71. The “swelling degree of right ankle” value (day 45) was 0.000±0.006, the systemic score (day 45) was 4.00±0.00 and the joint index score (day 48) was 4.50±0.71. For the same substance, the “swelling degree of right ankle” value (day 48) was 0.001±0.007, the joint index score (day 51) was 4.50±0.71 and the “swelling degree of right ankle” value (day 51) was 0.005±0.007. The systemic score (day 51) was 4.00±0.00.

From US20220202912A1, “Polypeptides in Preparation of Drugs for Treatment or Prevention of Rheumatoid Arthritis” (priority 2011, published 2022)
